Measurements as given in US6420330B1, “Use of quaternary carboxylic acid alkanolamine ester salts as microbicide agents” (Cognis Deutschland GmbH, priority 1997, dated 2002).

What was measured:
Test in all cases: DGHM suspension test, microbicidal activity
Type in all cases: cell-based
[1] = system: Staphylococcus aureus ATCC 6538
Description: (§1) The microbicidal activity of the quanterary carboxylic acid alkanolamine ester salts used in accordance with the invention was tested against the following selected test germs:
(§2) The effectiveness of the compound to be tested was determined by the suspension test in accordance with the guidelines of the Deutsche Gesellschaft for Hygiene and Mikrobiologie (DGHM). Test solutions containing quatemary carboxylic acid alkanolamine ester salts in the quantities shown in the Tables of 50, 100, 200, 400 and 800 mg/l were prepared using water with a hardness of 17° dH and optionally isopropanol.
(§3) At room temperatures, quantities of 0.1 ml test germ suspension were pipetted into test tubes containing 10 ml of the test solutions described above and mixed. After various contact times of 5, 15, 30 and 60 minutes, 1 ml of material was taken from the test tubes by pipette and transferred to 9 ml inactivator solution (inactivators: 3.0% Tween, 0.3% lecithin, 0.1% histidine). After in activation for at least 5 and at most 30 minutes, the living germ count was determined by plating out onto casein peptone-soybean flour peptone (CaSo)-agar plates. Using a spiral plater, the inactivating mixture was directly plated out onto CaSo-agar. The samples were incubated for 24 to 72 hours at 37° C. and macroscopically evaluated for growth. The destruction time or the residual germ count was determined in this way. The germ count of an unchallenged water control is related to the germ count of the inactivated test solution taking the dilution into account. The higher the value, the better the microbicidal effect. The symbol < means that the logarithmic reductuon factor is below the indicated value or, in the case of the symbol >, above the indicated value. The abbreviation CU stands for “concentration used”.

[2] = system: Candida albicans ATCC 10231
Description: as §1, §2, §3

[3] = system: Pseudomonas aeruginosa ATCC 15442
Description: as §1, §2, §3

[4] = CU 50 mg/l, contact time 5 mins.
[5] = CU 50 mg/l, contact time 15 mins.
[6] = CU 50 mg/l, contact time 30 mins.
[7] = CU 50 mg/l, contact time 60 mins.
[8] = CU 100 mg/l, contact time 5 mins.
[9] = CU 100 mg/l, contact time 15 mins.
[10] = CU 100 mg/l, contact time 30 mins.
[11] = CU 100 mg/l, contact time 60 mins.
[12] = CU 200 mg/l, contact time 5 mins.
[13] = CU 200 mg/l, contact time 15 mins.
[14] = CU 200 mg/l, contact time 30 mins.
[15] = CU 200 mg/l, contact time 60 mins.
[16] = CU 400 mg/l, contact time 5 mins.
[17] = CU 400 mg/l, contact time 15 mins.
[18] = CU 400 mg/l, contact time 30 mins.
[19] = CU 400 mg/l, contact time 60 mins.
[20] = CU 800 mg/l, contact time 5 mins.
[21] = CU 800 mg/l, contact time 15 mins.
[22] = CU 800 mg/l, contact time 30 mins.
[23] = CU 800 mg/l, contact time 60 mins.

CCCCCCCC(=O)OCC[N+](C)(CCO)CCOC(=O)CCCCCCC.COS(=O)(=O)[O-] [Example 7, Methyl triethanolammonium dicaprylic acid ester methosulfate]
logarithmic reduction factor [1, 4]: >5.75 | logarithmic reduction factor [1, 5]: >5.53 | logarithmic reduction factor [1, 6]: >5.42 | logarithmic reduction factor [1, 7]: >5.69 | logarithmic reduction factor [1, 8]: >5.75 | logarithmic reduction factor [1, 9]: >5.53 | logarithmic reduction factor [1, 10]: >5.42 | logarithmic reduction factor [1, 11]: >5.69 | logarithmic reduction factor [1, 12]: >5.75 | logarithmic reduction factor [1, 13]: >5.53 | logarithmic reduction factor [1, 14]: >5.42 | logarithmic reduction factor [1, 15]: >5.69 | logarithmic reduction factor [1, 16]: >5.75 | logarithmic reduction factor [1, 17]: >5.53 | logarithmic reduction factor [1, 18]: >5.42 | logarithmic reduction factor [1, 19]: >5.69 | logarithmic reduction factor [1, 20]: >5.75 | logarithmic reduction factor [1, 21]: >5.53 | logarithmic reduction factor [1, 22]: >5.42 | logarithmic reduction factor [1, 23]: >5.69 | logarithmic reduction factor [2, 4]: >4.31 | logarithmic reduction factor [2, 5]: >4.18 | logarithmic reduction factor [2, 6]: >4.16 | logarithmic reduction factor [2, 7]: >4.27 | logarithmic reduction factor [2, 8]: >4.31 | logarithmic reduction factor [2, 9]: >4.18 | logarithmic reduction factor [2, 10]: >4.16 | logarithmic reduction factor [2, 11]: >4.27 | logarithmic reduction factor [2, 12]: >4.31 | logarithmic reduction factor [2, 13]: >4.18 | logarithmic reduction factor [2, 14]: >4.16 | logarithmic reduction factor [2, 15]: >4.27 | logarithmic reduction factor [2, 16]: >4.31 | logarithmic reduction factor [2, 17]: >4.18 | logarithmic reduction factor [2, 18]: >4.16 | logarithmic reduction factor [2, 19]: >4.27 | logarithmic reduction factor [2, 20]: >4.31 | logarithmic reduction factor [2, 21]: >4.18 | logarithmic reduction factor [2, 22]: >4.16 | logarithmic reduction factor [2, 23]: >4.27 | logarithmic reduction factor [3, 4]: <1.77 | logarithmic reduction factor [3, 5]: <1.72 | logarithmic reduction factor [3, 6]: <1.76 | logarithmic reduction factor [3, 7]: 3.65 | logarithmic reduction factor [3, 8]: 3.64 | logarithmic reduction factor [3, 9]: >5.72 | logarithmic reduction factor [3, 10]: >5.76 | logarithmic reduction factor [3, 11]: >5.86 | logarithmic reduction factor [3, 12]: 4.59 | logarithmic reduction factor [3, 13]: >5.72 | logarithmic reduction factor [3, 14]: 5.76 | logarithmic reduction factor [3, 15]: >5.86 | logarithmic reduction factor [3, 16]: 5.32 | logarithmic reduction factor [3, 17]: >5.72 | logarithmic reduction factor [3, 18]: >5.76 | logarithmic reduction factor [3, 19]: >5.86 | logarithmic reduction factor [3, 20]: >5.77 | logarithmic reduction factor [3, 21]: >5.72 | logarithmic reduction factor [3, 22]: >5.76 | logarithmic reduction factor [3, 23]: >5.86

CCCCCCCCCCCC(=O)OCC[N+](C)(C)CCOC(=O)CCCCCCCCCCC.COS(=O)(=O)[O-] [Example 8, dimethyl diethanolammonium dilauric acid ester methosulfate]
logarithmic reduction factor [1, 4]: <1.39 | logarithmic reduction factor [1, 5]: 3.24 | logarithmic reduction factor [1, 6]: 4.28 | logarithmic reduction factor [1, 7]: 4.23 | logarithmic reduction factor [1, 8]: 1.98 | logarithmic reduction factor [1, 9]: 3.40 | logarithmic reduction factor [1, 10]: 5.29 | logarithmic reduction factor [1, 11]: >5.60 | logarithmic reduction factor [1, 12]: 2.34 | logarithmic reduction factor [1, 13]: 4.64 | logarithmic reduction factor [1, 14]: >5.51 | logarithmic reduction factor [1, 15]: >5.60 | logarithmic reduction factor [3, 4]: <1.88 | logarithmic reduction factor [3, 5]: <1.93 | logarithmic reduction factor [3, 6]: <1.80 | logarithmic reduction factor [3, 7]: <1.90 | logarithmic reduction factor [3, 8]: <1.88 | logarithmic reduction factor [3, 9]: <1.93 | logarithmic reduction factor [3, 10]: <1.80 | logarithmic reduction factor [3, 11]: 3.05 | logarithmic reduction factor [3, 12]: <1.88 | logarithmic reduction factor [3, 13]: <1.93 | logarithmic reduction factor [3, 14]: 3.05 | logarithmic reduction factor [3, 15]: 3.77

CCCCCCCCCCCC(=O)OCC[N+](C)(CCO)CCOC(=O)CCCCCCCCCCC.COS(=O)(=O)[O-] [Example 5, methyl triethanolammonium dilauric acid ester methosulfate]
logarithmic reduction factor [1, 4]: <1.79 | logarithmic reduction factor [1, 5]: <1.73 | logarithmic reduction factor [1, 6]: 2.53 | logarithmic reduction factor [1, 7]: 3.88 | logarithmic reduction factor [1, 8]: <1.79 | logarithmic reduction factor [1, 9]: 2.38 | logarithmic reduction factor [1, 10]: 3.80 | logarithmic reduction factor [1, 11]: 5.21 | logarithmic reduction factor [1, 12]: 2.52 | logarithmic reduction factor [1, 13]: 4.25 | logarithmic reduction factor [1, 14]: >5.75 | logarithmic reduction factor [1, 15]: >5.86 | logarithmic reduction factor [1, 16]: 2.70 | logarithmic reduction factor [1, 17]: >5.73 | logarithmic reduction factor [1, 18]: >5.75 | logarithmic reduction factor [1, 19]: >5.86 | logarithmic reduction factor [1, 20]: 3.85 | logarithmic reduction factor [1, 21]: >5.73 | logarithmic reduction factor [1, 22]: >5.75 | logarithmic reduction factor [1, 23]: >5.86 | logarithmic reduction factor [3, 4]: <1.85 | logarithmic reduction factor [3, 5]: <1.79 | logarithmic reduction factor [3, 6]: <1.71 | logarithmic reduction factor [3, 7]: <1.51 | logarithmic reduction factor [3, 8]: <1.85 | logarithmic reduction factor [3, 9]: <1.79 | logarithmic reduction factor [3, 10]: <1.71 | logarithmic reduction factor [3, 11]: <1.81 | logarithmic reduction factor [3, 12]: <1.85 | logarithmic reduction factor [3, 13]: <1.79 | logarithmic reduction factor [3, 14]: <1.71 | logarithmic reduction factor [3, 15]: <1.81 | logarithmic reduction factor [3, 16]: <1.85 | logarithmic reduction factor [3, 17]: <1.79 | logarithmic reduction factor [3, 18]: <1.71 | logarithmic reduction factor [3, 19]: 3.84 | logarithmic reduction factor [3, 20]: <1.85 | logarithmic reduction factor [3, 21]: 3.43 | logarithmic reduction factor [3, 22]: 3.95 | logarithmic reduction factor [3, 23]: 4.40

CCCCCCCCCC(=O)OCC[N+](C)(CCOC(=O)CCCCCCCCC)CCOC(=O)CCCCCCCCC.COS(=O)(=O)[O-] [Example 9, methyl triethanolammonium tricapric acid ester methosulfate]
logarithmic reduction factor [1, 4]: <1.39 | logarithmic reduction factor [1, 5]: <1.59 | logarithmic reduction factor [1, 6]: <1.51 | logarithmic reduction factor [1, 7]: <1.60 | logarithmic reduction factor [1, 8]: <1.39 | logarithmic reduction factor [1, 9]: <1.59 | logarithmic reduction factor [1, 10]: <1.51 | logarithmic reduction factor [1, 11]: 2.09 | logarithmic reduction factor [1, 12]: <1.39 | logarithmic reduction factor [1, 13]: <1.59 | logarithmic reduction factor [1, 14]: 1.83 | logarithmic reduction factor [1, 15]: 2.97 | logarithmic reduction factor [3, 8]: <1.88 | logarithmic reduction factor [3, 9]: <1.93 | logarithmic reduction factor [3, 10]: <1.80 | logarithmic reduction factor [3, 11]: <1.90 | logarithmic reduction factor [3, 12]: <1.88 | logarithmic reduction factor [3, 13]: <1.93 | logarithmic reduction factor [3, 14]: <1.80 | logarithmic reduction factor [3, 15]: 2.94 | logarithmic reduction factor [3, 16]: <1.88 | logarithmic reduction factor [3, 17]: <1.93 | logarithmic reduction factor [3, 18]: 3.27 | logarithmic reduction factor [3, 19]: 3.72
